Measurements from patent publication US12551565B2, “CD44 targeted multi-arm conjugate” (priority 2019, dated 2026).

Test system: human small cell lung cancer cell NCI-H446
Assay: Xenograft model of human small cell lung cancer cell NCI-H446 in nude mice
Format: in vivo, BALB/c nude mice
Conditions: tail vein injection, QW×3, 6 mg·kg^−1

In the case of `CCc1c2c(nc3ccc(OC(=O)N4CCC(N5CCCCC5)CC4)cc13)-c1cc3c(c(=O)n1C2)COC(=O)[C@]3(O)CC` [Irinotecan], the “Relative tumor proliferation rate (% T/C)” value was 66.0%.
